Reference: ChEMBL document CHEMBL1147697, “Synthesis and structure-activity relationship of a novel, achiral series of TNF-alpha converting enzyme inhibitors” (Bioorg Med Chem Lett, 2006)
Each block holds one compound with its values, some of them ahead of it.

Legend:
[1] = Dissociation constant, pKa of the compound; type: physicochemical
[2] = Partition coefficient, logP of the compound; type: physicochemical; settings: octanol/water
[3] = Volume of distribution in Sprague-Dawley rat at 2 mg/kg, iv; type: ADME, organism-based; design: dose 2 mg/kg, route intravenous; settings: in vivo, read-out: Vdss
[4] = Tmax in Sprague-Dawley rat at 30 mg/kg, po; type: ADME, organism-based; design: dose 30 mg/kg, route oral; settings: in vivo
[5] = Cmax in Sprague-Dawley rat at 30 mg/kg, po; type: ADME, organism-based; design: dose 30 mg/kg, route oral; settings: in vivo
[6] = AUC in Sprague-Dawley rat at 2 mg/kg, iv; type: ADME, organism-based; design: dose 2 mg/kg, route intravenous; settings: plasma
[7] = AUC in Sprague-Dawley rat at 30 mg/kg, po; type: ADME, organism-based; design: dose 30 mg/kg, route oral; settings: plasma
[8] = Oral bioavailability in Sprague-Dawley rat at 30 mg/kg, po; type: ADME, organism-based; settings: in vivo
[9] = Stability in chimp liver S9 fraction after 30 mins; type: ADME, Pan troglodytes; settings: chimpanzee, read-out: Stability
[10] = Stability in human liver S9 fraction after 30 mins; type: ADME, organism-based; settings: read-out: Stability
[11] = Clearance in Beagle dog at 2 mg/kg, iv; type: ADME, organism-based, Canis lupus familiaris; design: dose 2 mg/kg, route intravenous; settings: in vivo
[12] = Half life in Beagle dog at 2 mg/kg, iv; type: ADME, organism-based, Canis lupus familiaris; design: dose 2 mg/kg, route intravenous; settings: in vivo
[13] = Half life in Beagle dog at 10 mg/kg, po; type: ADME, organism-based, Canis lupus familiaris; design: dose 10 mg/kg, route oral; settings: in vivo
[14] = Volume of distribution in Beagle dog at 2 mg/kg, iv; type: ADME, organism-based, Canis lupus familiaris; design: dose 2 mg/kg, route intravenous; settings: in vivo, read-out: Vdss
[15] = Tmax in Beagle dog at 10 mg/kg, po; type: ADME, organism-based, Canis lupus familiaris; design: dose 10 mg/kg, route oral; settings: in vivo
[16] = Cmax in Beagle dog at 10 mg/kg, po; type: ADME, organism-based, Canis lupus familiaris; design: dose 10 mg/kg, route oral; settings: in vivo
[17] = AUC in Beagle dog at 2 mg/kg, iv; type: ADME, organism-based, Canis lupus familiaris; design: dose 2 mg/kg, route intravenous; settings: plasma
[18] = AUC in Beagle dog at 10 mg/kg, po; type: ADME, organism-based, Canis lupus familiaris; design: dose 10 mg/kg, route oral; settings: plasma
[19] = Oral bioavailability in Beagle dog at 10 mg/kg, po; type: ADME, organism-based, Canis lupus familiaris; settings: in vivo
[20] = Clearance in Sprague-Dawley rat at 2 mg/kg, iv; type: ADME, organism-based; design: dose 2 mg/kg, route intravenous; settings: in vivo
[21] = Half life in Sprague-Dawley rat at 2 mg/kg, iv; type: ADME, organism-based; design: dose 2 mg/kg, route intravenous; settings: in vivo
[22] = Half life in Sprague-Dawley rat at 30 mg/kg, po; type: ADME, organism-based; design: dose 30 mg/kg, route oral; settings: in vivo
[23] = Clearance in Beagle dog at 0.5 mg/kg, iv; type: ADME, organism-based, Canis lupus familiaris; design: dose 0.5 mg/kg, route intravenous; settings: in vivo
[24] = Half life in Beagle dog at 0.5 mg/kg, iv; type: ADME, organism-based, Canis lupus familiaris; design: dose 0.5 mg/kg, route intravenous; settings: in vivo
[25] = Half life in Beagle dog at 1 mg/kg, po; type: ADME, organism-based, Canis lupus familiaris; design: dose 1 mg/kg, route oral; settings: in vivo
[26] = Volume of distribution in Beagle dog at 0.5 mg/kg, iv; type: ADME, organism-based, Canis lupus familiaris; design: dose 0.5 mg/kg, route intravenous; settings: in vivo, read-out: Vdss
[27] = Tmax in Beagle dog at 1 mg/kg, po; type: ADME, organism-based, Canis lupus familiaris; design: dose 1 mg/kg, route oral; settings: in vivo
[28] = Cmax in Beagle dog at 1 mg/kg, po; type: ADME, organism-based, Canis lupus familiaris; design: dose 1 mg/kg, route oral; settings: in vivo
[29] = AUC in Beagle dog at 0.5 mg/kg, iv; type: ADME, organism-based, Canis lupus familiaris; design: dose 0.5 mg/kg, route intravenous; settings: plasma
[30] = AUC in Beagle dog at 1 mg/kg, po; type: ADME, organism-based, Canis lupus familiaris; design: dose 1 mg/kg, route oral; settings: plasma
[31] = Oral bioavailability in Beagle dog at 1 mg/kg, po; type: ADME, organism-based, Canis lupus familiaris; settings: in vivo
[32] = Clearance in Sprague-Dawley rat at 3.3 mg/kg, iv; type: ADME, organism-based; design: dose 3.3 mg/kg, route intravenous; settings: in vivo
[33] = Half life in Sprague-Dawley rat at 3.3 mg/kg, iv; type: ADME, organism-based; design: dose 3.3 mg/kg, route intravenous; settings: in vivo
[34] = Half life in Sprague-Dawley rat at 6.7 mg/kg, po; type: ADME, organism-based; design: dose 6.7 mg/kg, route oral; settings: in vivo
[35] = Volume of distribution in Sprague-Dawley rat at 3.3 mg/kg, iv; type: ADME, organism-based; design: dose 3.3 mg/kg, route intravenous; settings: in vivo, read-out: Vdss
[36] = Tmax in Sprague-Dawley rat at 6.7 mg/kg, po; type: ADME, organism-based; design: dose 6.7 mg/kg, route oral; settings: in vivo
[37] = Cmax in Sprague-Dawley rat at 6.7 mg/kg, po; type: ADME, organism-based; design: dose 6.7 mg/kg, route oral; settings: in vivo
Rattus norvegicus [38] = assay: AUC in Sprague-Dawley rat at 3.3 mg/kg, iv; type: ADME, organism-based, Plasma; design: dose 3.3 mg/kg, route intravenous; settings: in vivo
[39] = Stability in rat liver S9 fraction after 30 mins; type: ADME, organism-based; settings: read-out: Stability
[40] = Stability in dog liver S9 fraction after 30 mins; type: ADME, organism-based, Canis lupus familiaris; settings: read-out: Stability
Rattus norvegicus [41] = assay: AUC in Sprague-Dawley rat at 6.7 mg/kg, po; type: ADME, organism-based, Plasma; design: dose 6.7 mg/kg, route oral; settings: in vivo
Rattus norvegicus [42] = assay: Oral bioavailability in Sprague-Dawley rat at 6.7 mg/kg, po; type: ADME, organism-based; settings: in vivo

pKa [1]: 10.1 | logP [2]: 1.62
Structure (SMILES): Cc1cc(COc2ccc(C(=O)NC3(CC(=O)NO)CCCCC3)cc2)c2ccccc2n1

pKa [1]: 9 | logP [2]: 1.95
Structure (SMILES): Cc1cc(COc2ccc(C(=O)NC3(CC(=O)NO)CCN(C(C)(C)C)CC3)cc2)c2ccccc2n1

pKa [1]: 7.23 | logP [2]: 2.78
Structure (SMILES): Cc1cc(COc2ccc(C(=O)NC3(CC(=O)NO)CCN(C4=NCCS4)CC3)cc2)c2ccccc2n1

pKa [1]: 7.2 | logP [2]: 2.7
Structure (SMILES): Cc1cc(COc2ccc(C(=O)NC3(CC(=O)NO)CCN(CCF)CC3)cc2)c2ccccc2n1

pKa [1]: 7.75 | logP [2]: 3.66
Structure (SMILES): Cc1cc(COc2ccc(C(=O)NC3(CC(=O)NO)CCN(CC(C)(C)C)CC3)cc2)c2ccccc2n1

Vd [3]: 0.7 L/kg | Tmax [4]: 0.4 h | Cmax [5]: 3.75 µM | AUC [6]: 2.21 µM·h | AUC [7]: 4.86 µM·h | bioavailability [8]: 15% | remaining at 0.5 h [9]: 36.7% | remaining at 0.5 h [10]: 83.8% | clearance [11]: 38.3 mL/min/kg | half-life [12]: 4.2 h | half-life [13]: 4 h | Vd [14]: 2.5 L/kg | Tmax [15]: 0.75 h | Cmax [16]: 4.49 µM | AUC [17]: 1.97 µM·h | AUC [18]: 7.72 µM·h | bioavailability [19]: 79% | clearance [20]: 26.7 mL/min/kg | half-life [21]: 0.3 h | half-life [22]: 1.8 h
Structure (SMILES): Cc1cc(COc2ccc(C(=O)NC3(CC(=O)NO)CCOCC3)cc2)c2ccccc2n1

pKa [1]: 6.58 | logP [2]: 3.43
Structure (SMILES): C#CC(C)(C)N1CCC(CC(=O)NO)(NC(=O)c2ccc(OCc3cc(C)nc4ccccc34)cc2)CC1

pKa [1]: 8.4 | logP [2]: 2.13 | clearance [23]: 5 mL/min/kg | half-life [24]: 1.5 h | half-life [25]: 2.1 h | Vd [26]: 0.3 L/kg | Tmax [27]: 0.63 h | Cmax [28]: 0.126 µM | AUC [29]: 2.19 µM·h | AUC [30]: 0.343 µM·h | bioavailability [31]: 8% | clearance [32]: 10 mL/min/kg | half-life [33]: 2.1 h | half-life [34]: 2.2 h | Vd [35]: 0.3 L/kg | Tmax [36]: 0.3 h | Cmax [37]: 2.48 µM | AUC (Rattus norvegicus [38]): 11.359 µM·h | remaining at 0.5 h [39]: 100% | remaining at 0.5 h [40]: 100% | remaining at 0.5 h [9]: 100% | remaining at 0.5 h [10]: 92% | AUC (Rattus norvegicus [41]): 8.358 µM·h | F (Rattus norvegicus [42]): 17%
Structure (SMILES): Cc1cc(COc2ccc(C(=O)NC3(CC(=O)NO)CCNCC3)cc2)c2ccccc2n1

pKa [1]: 6.06 | logP [2]: 2.48
Structure (SMILES): CCS(=O)(=O)CCN1CCC(CC(=O)NO)(NC(=O)c2ccc(OCc3cc(C)nc4ccccc34)cc2)CC1
